Measurements: patent publication US10112918B2, “15-oxospiramilactone derivatives, preparation method and uses thereof” (Kunming Institute of Botany, The Chinese Academy of Sciences, priority 2013, dated 2018)
Like-named read-outs stand apart in the source and are kept apart here.

Tests used:
Type in all cases: cell-based
[1] = system: SMMC-7721 (human hepatoma cells); test: MTT inhibition of tumor cell growth, SMMC-7721; conditions: Homo sapiens
Description: (§1) 1. Inoculating cells: the culture medium DMEM or RMPI1640 containing 10% fetal bovine serum was used to prepare a single cell suspension, and the cell suspension was inoculated to a 96-well plate at 5000-10000 cells per well (100 μl for each well); Adherent cells were inoculated and cultured for 12 h in advance. HL-60 (human promyelocytic leukemia cells), SMMC-7721 (human hepatoma cells), A-549 (Human lung adenocarcinoma cells), MCF-7 (human breast cancer cells), SW-480 (human colon cancer cells) were purchased from the Cell Bank of the Chinese Academy of Sciences, Shanghai.
(§2) 2. The solution of the compound to be tested (40 μM for primary screening; 5 concentrations were set for gradient re-screening for the compounds which achieve about 50% inhibition of tumor cell growth at 40 μM) was added, the final volume of each well was 200 μl, and triplicate wells were set for each test.
(§3) 3. Coloration: After culturing at 37° C. for 48 h, MTT solution (20 μl) was added to each well. After incubation for another 4 h, the culture was stopped. The supernatant in each well was pipetted and discarded, and 200 μl SDS solution (10%) was added to each well. Incubation was performed overnight (at 37° C.), to completely dissolve the crystal.
(§4) 4. Colorimetric assay: ELISA Reader (Bio-Rad 680) was used to obtain the light absorption for each well at a wavelength of 595 nm, the results were recorded. A cell growth curve was plotted with the concentration as abscissa and the cell survival percentage as ordinate. The two-point method (Reed and Muench method) was used to calculate the IC50 of the compound.

[2] = system: HL-60 (human promyelocytic leukemia cells); test: MTT inhibition of tumor cell growth, HL-60; conditions: Homo sapiens
Description: as §1, §2, §3, §4

[3] = system: A-549 (Human lung adenocarcinoma cells); test: MTT inhibition of tumor cell growth, A-549; conditions: Homo sapiens
Description: as §1, §2, §3, §4

[4] = system: SW-480 (human colon cancer cells); test: MTT inhibition of tumor cell growth, SW-480; conditions: Homo sapiens
Description: as §1, §2, §3, §4

[5] = system: Wnt signaling pathway (Top-Flash reporter gene); test: Top-Flash Wnt reporter gene assay in HEK293T cells with Wnt3a conditioned medium; conditions: Homo sapiens, HEK-293T, 6 h, 6 h
Description: HEK293T cells were cultured in DMEM containing 10% fetal bovine serum (Invitrogen) at 37° C., 5% CO2. The cells were passaged every other day. The density was retained at 70˜80% during passage. L cell line (CRL-2647, purchased from the gene bank of ATCC, the US) and the control cell line (CRL-2648, purchased from ATCC, US), which stably secreted mouse Wnt3a protein, were cultured in DMEM containing 50 ug/ml G418 and 10% fetal bovine serum, at 37° C., 5% CO2. When the cells grew to a density of about 70%, the medium was replaced with DMEM containing 10% fetal bovine serum. After continuous culture for 4 days, the culture was collected and centrifuged, and the supernatant was kept so that the Wnt conditioned medium was obtained. After titration assay, the conditioned medium was quick-frozen in liquid nitrogen, and placed at −80° C. for long-term storage, so that the titer was kept unchanged.
The cells were seeded to a 48-well plate at a density of […] cells per well, and transfected 20 h later. The reagents for plasmid transfection were calculated based on the amount in each well of the 48-well plate as following: the total amount of plasmid was 125 ng/well; the plasmid was first added to a serum-free medium (25 μL/well) and mixed well; PLUS reagent (Invitrogen) was then added in an amount of 0.5 μL/well and mixed well, then stood for 15 min; Lipofectamine (Invitrogen) liposome was added in an amount of 0.5 μL/well to serum-free DMEM medium (25 μL/well), and then mixed with the solution containing the plasmid and the PLUS, and stood for 15 min. The cells were cultured in serum-free DMEM medium (100 μL/well), and the final mixture of plasmid, PLUS and Lipofectamine were added to the cells. After incubation for 3 h, the transfection was stopped by the medium containing 10% fetal bovine serum (200 μL/well).
The HEK293T cells used for activity assay of the report gene were transfected by the method as shown in 2). Activity assay of Wnt reporter gene: the amount of plasmid for transfection was 5 ng/well for TOP-flash and 5 ng/well for GFP plasmid as internal standard, with lacZ added to reach a total amount of 125 ng/well. […] After treating for 6 h, Boehringer Mannheim Luci-ferase Assay Kit was used to lyse cells (200 μL/well). 50 μL from each well was pipetted into a 96-well plate. The indensity of GFP protein in the cell lysate was measured by fluorimeter FL600 (BIO-TEK Inc. Winooski, Vt.), and taken as internal standard for cell transfection efficiency. 10 μL substrate of luciferase was then added to each well, and the activity of luciferase was measured by Micro Lumate Plus (Perkin Elmer Inc. Wellesley, Mass.) luminometer. Finally, GFP indensity was used as internal standard to calibrate the activity of luciferase, i.e. the activity of Wnt reporter gene.
Calculation of IC50 (taking the calculation of IC50 of the Wnt signaling pathway for example): background (the activity as measured in the groups treated with a conditioned medium containing DMSO only) was subtracted from the reporter gene activity as measured in the groups treated by Wnt3a conditioned medium with or without the compound to be tested at different concentrations; and the obtained value was defined as the activity of the reporter gene induced by Wnt or the residual activity of the reporter gene after adding the compound to be tested. The residual activity was normalized by the activity induced by Wnt to get the relative residual activity. Then combine with the concentrations of the compound to be tested to plot a linear graph, and a dose-effect curve was fitted based on 4-parameter logistic fit. IC50 of the Wnt signaling pathway is determined as the concentration at which the relative residual activity is 0.5.

[6] = system: MCF-7 (human breast cancer cells); test: MTT inhibition of tumor cell growth, MCF-7; conditions: Homo sapiens
Description: as §1, §2, §3, §4

[7] = SMMC-7721, 48 h, Table 2, derivatives having potential Michael reaction acceptor
[8] = HL-60, 48 h, Table 2, derivatives having potential Michael reaction acceptor
[9] = A549, 48 h, Table 2, derivatives having potential Michael reaction acceptor
[10] = SW480, 48 h, Table 2, derivatives having potential Michael reaction acceptor, read-out: IC50 SW-480
[11] = Table 7 (second), derivatives modified on 7-hydroxyl of S-3, HEK293T, Wnt3a conditioned medium, read-out: IC50 (μM), inhibitory activity on the Wnt signaling pathway
[12] = MCF7, 48 h, Table 2, derivatives having potential Michael reaction acceptor
[13] = SMMC-7721, Table 7 (first), alkaloid derivatives, 48 h
[14] = HL-60, Table 7 (first), alkaloid derivatives, 48 h
[15] = A549, Table 7 (first), alkaloid derivatives, 48 h
[16] = SW480, Table 7 (first), alkaloid derivatives, 48 h, read-out: IC50 SW-480
[17] = read-out: IC50 (μM), inhibitory activity on the Wnt signaling pathway
[18] = MCF7, Table 7 (first), alkaloid derivatives, 48 h
[19] = Table 9, HEK293T, Wnt3a conditioned medium, read-out: IC50(μM), inhibitory activity on the Wnt signaling pathway

Compound `C=C1C(=O)[C@]23CC[C@H]1CC2[C@@]12CCC[C@@](C)(COC1=O)C2CC3=O` (stereo partly drawn) [Compound 7] has an IC50 [1, 7] of 4.72 µM, an IC50 [2, 8] of 4.56 µM and an IC50 [3, 9] of 3.16 µM. It also gave an IC50 [4, 10] of 3.74 µM, an IC50 ([4]; SW480, 48 h, Table 6, 7-carbonyl derivatives, read-out: IC50 SW-480, 7-carbonyl derivatives) of 2.63 µM and an IC50 [5, 11] of 12.1 ± 1.88 µM. The IC50 ([5]; Table 8, HEK293T, Wnt3a conditioned medium, read-out: IC50 (μM), inhibitory activity on the Wnt signaling pathway) was 12.1 µM and the IC50 [6, 12] was 4.61 µM.

For `C=C1C(=O)[C@@]23CC[C@@H](CC2[C@@]24CCC[C@@](C)(CN(CCO)C2)C14)C(=C)C3=O` (stereo partly drawn) [Compound 93], the IC50 [1, 13] was 11.5 µM, the IC50 [2, 14] was 6.61 µM and the IC50 [3, 15] was 6.5 µM. It also gave an IC50 [4, 16] of 2.81 µM, an IC50 [5, 17] of 17 ± 1.28 µM and an IC50 [6, 18] of 3.57 µM.

For `C=C1C(=O)C23CC[C@@H](CC2[C@]2(COC(C)=O)CCC[C@@](C)(COC(=O)c4cccs4)C12)C(=C)C3=O` (stereo partly drawn) [Compound 67], the IC50 ([1]; SMMC-7721, 48 h, Table 5, derivatives having double Michael reaction acceptor) was 0.13 µM, the IC50 ([2]; HL-60, 48 h, Table 5, derivatives having double Michael reaction acceptor) was 0.24 µM and the IC50 ([3]; A549, 48 h, Table 5, derivatives having double Michael reaction acceptor) was 0.14 µM. The IC50 ([4]; SW480, 48 h, Table 5, derivatives having double Michael reaction acceptor, read-out: IC50 SW-480) was 0.1 µM, the IC50 ([4]; SW480, 48 h, Table 6, double Michael reaction acceptor derivatives, read-out: IC50 SW-480, derivatives having double Michael reaction acceptor) was 0.13 µM and the IC50 [5, 19] was 4.92 ± 0.69 µM. The IC50 ([6]; MCF7, 48 h, Table 5, derivatives having double Michael reaction acceptor) was 0.15 µM.

In the case of `C=C1C(=O)C23CC[C@H]1CC2[C@@]12CCC[C@@](C)(COC1=O)C2C[C@H]3OS(=O)(=O)c1ccccc1` (stereo partly drawn) [Compound 1s], the IC50 ([1]; SMMC-7721, 48 h, Table 1, 7-hydroxy derivatives of S-3) is reported as 3.83 µM, the IC50 ([2]; HL-60, 48 h, Table 1, 7-hydroxy derivatives of S-3) is reported as 3.53 µM and the IC50 ([3]; A549, 48 h, Table 1, 7-hydroxy derivatives of S-3) is reported as 2.69 µM. The IC50 ([4]; SW480, 48 h, Table 1, 7-hydroxy derivatives of S-3, read-out: IC50 SW-480) was 2.89 µM, the IC50 [5, 11] was 12.4 ± 1 µM and the IC50 ([6]; MCF7, 48 h, Table 1, 7-hydroxy derivatives of S-3) was 4.18 µM.

`C=C1C(=O)[C@]23CC[C@H]1CC2[C@@]12CCC[C@@]4(C)C(=O)N(CCO)[C@@H]1O[C@@H]3CC24` (stereo partly drawn) [Compound 83] gave an IC50 [1, 13] of 18.4 µM, an IC50 [2, 14] of 18.6 µM and an IC50 [3, 15] of 17.9 µM. The IC50 [4, 16] was 12.4 µM, the IC50 [5, 17] was > 60 µM and the IC50 [6, 18] was 13.2 µM.

`C=C1C(=O)C23CC[C@H]1CC2[C@]1(COS(C)(=O)=O)CCC[C@@](C)(COC(=O)N2CCOCC2)C1CC3=O` (stereo partly drawn) [Compound 61] was tested, and the IC50 ([1]; SMMC-7721, 48 h, Table 4, derivatives obtained by reduction of the lactonic ring) was 2.18 µM, the IC50 ([2]; HL-60, 48 h, Table 4, derivatives obtained by reduction of the lactonic ring) was 2.7 µM and the IC50 ([3]; A549, 48 h, Table 4, derivatives obtained by reduction of the lactonic ring) was 2.32 µM. The IC50 ([4]; SW480, 48 h, Table 4, derivatives obtained by reduction of the lactonic ring, read-out: IC50 SW-480) was 3.37 µM, the IC50 ([5]; Table 10, HEK293T, Wnt3a conditioned medium, read-out: IC50 (μM), inhibitory activity on the Wnt signaling pathway) was 32.3 ± 3.01 µM and the IC50 ([6]; MCF7, 48 h, Table 4, derivatives obtained by reduction of the lactonic ring) was 2.05 µM.

`C=C1C(=O)[C@]23CC[C@H]1CC2[C@@]12CCC[C@@](C)(COC1=O)C2[C@H](CO)C3=O` (stereo partly drawn) [Compound 11] gave an IC50 [1, 7] of 2.48 µM, an IC50 [2, 8] of 3.85 µM and an IC50 [3, 9] of 2.44 µM. The IC50 [4, 10] was 2.8 µM, the IC50 [5, 19] was 6.89 ± 0.27 µM and the IC50 [6, 12] was 3.94 µM.
